# Reference: US12281122B1, “PI3K inhibitors” (Cogent Biosciences, Inc., priority 2023, dated 2025)
# Legend:
# [1] = tested on: T47D (PI3Kα-H1047R) cell line; test: HTRF phospho-AKT(S473) cell assay in T47D cells; format: cell-based, human
# Outline: (§1)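 T47D (PI3Kα-H1047R; RPMI, 10% FBS, insulin) and SKBR3 (wild-type PI3Kα; McCoy's 5A, 10% FBS) cells treated 2 h at 37 °C with 12-point 1:3 dilutions, top 5 μM and 10 μM respectively, ≤0.5% DMSO. SKBR3 stimulated with 70 ng/ml PDGF-BB for the last 15 min; lysate pAKT(S473) by HTRF, IC50 from curves.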
# [2] = tested on: SKBR3 (PI3Kα-Wild Type) cell line; test: HTRF phospho-AKT(S473) cell assay in SKBR3 cells; format: cell-based, human
# Outline: as §1
# [3] = Homo sapiens; T47D (PI3Kα-H1047R) cells, HTRF phospho-AKT(S473), 2 hours compound incubation
# [4] = Homo sapiens, SK-BR-3; SKBR3 (PI3Kα-Wild Type) cells, HTRF phospho-AKT(S473), 2 hours compound incubation, PDGF-BB stimulated
# [5] = Homo sapiens; HTRF phospho-AKT(S473), T47D (PI3Kα-H1047R) cells, 2 hours compound incubation
# [6] = Homo sapiens, SK-BR-3; HTRF phospho-AKT(S473), SKBR3 (PI3Kα-Wild Type) cells, 2 hours compound incubation, PDGF-BB stimulated
Structure (SMILES),"IC50 [1, 3]","IC50 [2, 4]","IC50 [1, 5]","IC50 [2, 6]"
"Cc1cc([C@@H](C)Nc2ccc(Cl)nc2C(=O)NS(C)(=O)=O)c2nc(N3CCC[C@H](c4cnccn4)C3)n(C)c(=O)c2c1 (relative stereo) [Compound 619, 6-chloro-3-(((R)-1-(3,6-dimethyl-4-oxo-2-((R*)-3-(pyrazin-2-yl)piperidin-1-yl)-3,4-dihydroquinazolin-8-yl)ethyl)amino)-N-(methylsulfonyl) picolinamide]",,,< 250 nM,≥ 5000 nM
"Cc1cc([C@@H](C)Nc2ccc(Cl)nc2C(=O)NS(C)(=O)=O)c2nc(N3CCC(c4nn(C)cc4F)CC3)n(C3CC3)c(=O)c2c1 [Compound 410, (R)-6-chloro-3-((1-(3-cyclopropyl-2-(4-(4-fluoro-1-methyl-1H-pyrazol-3-yl)piperidin-1-yl)-6-methyl-4-oxo-3,4-dihydroquinazolin-8-yl)ethyl)amino)-N-(methylsulfonyl) picolinamide]",250 to 500 nM,≥ 5000 nM,,
"Cc1cc([C@@H](C)Nc2ccc(Cl)nc2C(=O)NS(C)(=O)=O)c2nc(N3CCC[C@H](Oc4cnccn4)C3)n(C)c(=O)c2c1 [Compound 377, 6-chloro-3-(((R)-1-(3,6-dimethyl-4-oxo-2-((S)-3-(pyrazin-2-yloxy)piperidin-1-yl)-3,4-dihydroquinazolin-8-yl)ethyl)amino)-N-(methylsulfonyl) picolinamide]",250 to 500 nM,≥ 5000 nM,,
"Cc1cc([C@@H](C)Nc2ccc(Cl)nc2C(=O)NS(C)(=O)=O)c2nc(N3CCN(c4nc(C)ncc4Cl)CC3)n(C)c(=O)c2c1 [Compound 727, (R)-6-chloro-3-((1-(2-(4-(5-chloro-2-methylpyrimidin-4-yl)piperazin-1-yl)-3,6-dimethyl-4-oxo-3,4-dihydroquinazolin-8-yl)ethyl)amino)-N-(methylsulfonyl) picolinamide]",,,250 to 500 nM,1000 to 5000 nM

# More lines, now with the values ahead:
"IC50 [1, 3]","IC50 [2, 4]","IC50 [1, 5]","IC50 [2, 6]",Structure (SMILES)
250 to 500 nM,1000 to 5000 nM,,,"C[C@@H](Nc1ccc(Cl)nc1C(=O)NS(C)(=O)=O)c1cc(Cl)cc2c(=O)n(C)c(N3CCC(c4nn(C)cc4F)CC3)nc12 [Compound 431, (R)-6-chloro-3-((1-(6-chloro-2-(4-(4-fluoro-1-methyl-1H-pyrazol-3-yl)piperidin-1-yl)-3-methyl-4-oxo-3,4-dihydroquinazolin-8-yl)ethyl)amino)-N-(methylsulfonyl) picolinamide]"
< 250 nM,1000 to 5000 nM,,,"Cc1cc([C@@H](C)Nc2ccc(Cl)nc2C(=O)NS(C)(=O)=O)c2nc(N3CC[C@H](Oc4ccnn4C)C3)n(C)c(=O)c2c1 [Compound 351, 6-chloro-3-(((R)-1-(3,6-dimethyl-2-((S)-3-((1-methyl-1H-pyrazol-5-yl)oxy)pyrrolidin-1-yl)-4-oxo-3,4-dihydroquinazolin-8-yl)ethyl)amino)-N-(methylsulfonyl) picolinamide]"
250 to 500 nM,≥ 5000 nM,,,"Cc1cc([C@@H](C)Nc2ccc(Cl)nc2C(=O)NS(C)(=O)=O)c2nc(N3CCC[C@@H](Oc4ccc(C)nc4)C3)n(C)c(=O)c2c1 [Compound 368, 6-chloro-3-(((R)-1-(3,6-dimethyl-2-((R)-3-((6-methylpyridin-3-yl)oxy)piperidin-1-yl)-4-oxo-3,4-dihydroquinazolin-8-yl)ethyl)amino)-N-(methylsulfonyl) picolinamide]"
< 250 nM,1000 to 5000 nM,,,"Cc1cc([C@@H](C)Nc2ccc(Cl)nc2C(=O)NS(C)(=O)=O)c2nc(N3CCC[C@H](c4cnn(C)c4)C3)n(C)c(=O)c2c1 (relative stereo) [Compound 194, 6-chloro-3-(((R)-1-(3,6-dimethyl-2-((R*)-3-(1-methyl-1H-pyrazol-4-yl)piperidin-1-yl)-4-oxo-3,4-dihydroquinazolin-8-yl)ethyl)amino)-N-(methylsulfonyl) picolinamide]"
